Results from patent US20190231771A1, “METHODS FOR TREATMENT AND PREVENTION OF OPIOID INDUCED CONSTIPATION USING ORAL COMPOSITIONS OF METHYLNALTREXONE” (Salix Pharmaceuticals, Ltd., priority 2011, published 2019).

Legend:
Assay type in all cases: in vivo, human
[1] = Study B: single and multiple dose pharmacokinetics after 20-minute intravenous infusion of 24 mg methylnaltrexone; details: 24 mg IV infusion; for t1/2 / AUC0-6: day not given; for AUC0-6: mean; for Metabolite ÷ MNTX Ratio / R (IV), accumulation factor: AUCinf used
Procedure: (§1) Presented herein is a clinical pharmacokinetics study, Study C, as well as Studies A and B. Study A investigated the single and multiple dose pharmacokinetics of methylnaltrexone (MNTX) and its metabolites (M2: methylnaltrexone sulfate; M4: 6α-methylnaltrexol; and M5: 6β-methylnaltrexol) following the subcutaneous administration of 12 mg methylnaltrexone. In Study B, the single and multiple dose pharmacokinetics of methylnaltrexone (MNTX) and its metabolites (M2, M4, and M5) were examined following a 20-minute short intravenous infusion of 24 mg of methylnaltrexone (MNTX).
(§2) Pharmacokinetic parameters included Cmax, AUCt, AUCinf, tmax, t1/2, % Re24, accumulation factor (R) as defined below and metabolite/parent drug ratio.
(§3) R=Accumulation Factor(based on AUC0-24(ng·h/mL):Day 7 AUC AUC0-24/Day 1 AUC0-24
(§4) Metabolite-Parent Drug ratio(based on ng·h/mL)(%)=100*(Metabolite AUC24/MNTX AUC24)
(§5) Note: AUCinf was used in place of AUC AUC0-24 for R and Metabolite-Parent Drug ratio computations following IV administration.

[2] = Study C: single and multiple dose pharmacokinetics of MNTX and metabolites, MNTX 450 mg PO x 7 days; details: for t1/2 / AUC0-24 / AUCinf / Cmax / Tmax / Metabolite/MNTX Ratio / R (PO), accumulation factor: 450 mg Tablets oral; for Metabolite/MNTX Ratio: 100*(Metabolite AUC24/MNTX AUC24); for R (PO), accumulation factor: AUC0-24 on Day 7/AUC0-24 on Day 1; for metabolite to MNTX ratios following oral administration: day and AUC basis not stated
Procedure: as §1
In addition, the urinary elimination of MNTX was characterized.
as §2, §3, §4, §5

[3] = Study A: single and multiple dose pharmacokinetics after subcutaneous 12 mg methylnaltrexone; details: 12 mg SC Injection; for t1/2: day not given, harmonic mean; for R (SC), accumulation factor: AUC0-24 on Day 7/AUC0-24 on Day 1
Procedure: as §1, §2, §3, §4, §5

Compound	AUCinf ([1]; Day 1, mean) [ng·h/mL]	Cmax ([1]; Day 1, mean) [ng/mL]	AUCinf ([1]; Day 7, mean) [ng·h/mL]	Cmax ([1]; Day 7, mean) [ng/mL]	t1/2 [1] [h]	AUC0-6 [1] [ng·h/mL]	Metabolite ÷ MNTX Ratio [1] [%]	R (IV), accumulation factor [1]	t1/2 ([2]; Day 1, harmonic mean) [h]	AUC0-24 ([2]; Day 1, mean) [ng·h/mL]	AUCinf ([2]; Day 1, mean) [ng·h/mL]	Cmax ([2]; Day 1, mean) [ng/mL]	Tmax ([2]; Day 1, median) [h]	Metabolite/MNTX Ratio ([2]; Day 1) [%]	t1/2 ([2]; Day 7, harmonic mean) [h]	AUC0-24 ([2]; Day 7, mean) [ng·h/mL]	AUCinf ([2]; Day 7, mean) [ng·h/mL]	Cmax ([2]; Day 7, mean) [ng/mL]	Tmax ([2]; Day 7, median) [h]	Metabolite/MNTX Ratio ([2]; Day 7) [%]	further results
C[N@+]1(CC2CC2)CC[C@]23c4c5ccc(O)c4O[C@H]2[C@@H](O)CC[C@@]3(O)[C@H]1C5 [M4, 6α-methylnaltrexol]	61.30	11.0	54.0	18.10	12.28	28.8	14.90	2.08	17.48	79.73	124.23	9.01	2.0003	29.70	31.85	119.61	221.13	10.77	2.0007	38.50	R (PO), accumulation factor [2]: 1.62; metabolite to MNTX ratios following oral administration [2]: 54.21%; Metabolite/MNTX Ratio ([3]; Day 1): 15.81%; AUC0-24 ([3]; Day 1, mean): 34.66 ng·h/mL; AUCinf ([3]; Day 1, mean): 38.3 ng·h/mL; Cmax ([3]; Day 1, mean): 4.64 ng/mL; Tmax ([3]; Day 1, median): 1.0 h; Metabolite/MNTX Ratio ([3]; Day 7): 18.75%; AUC0-24 ([3]; Day 7, mean): 41.86 ng·h/mL; AUCinf ([3]; Day 7, mean): 41.9 ng·h/mL; Cmax ([3]; Day 7, mean): 4.33 ng/mL; Tmax ([3]; Day 7, median): 1.0 h; t1/2 [3]: 7.59 h; R (SC), accumulation factor [3]: 1.25
C[N@+]1(CC2CC2)CC[C@]23c4c5ccc(O)c4O[C@H]2[C@H](O)CC[C@@]3(O)[C@H]1C5 [M5, 6β-methylnaltrexol]	35.10	3.44	30.0	8.71	12.3	12.3	8.69	2.91	18.40	40.84	73.61	3.48	3.13	15.10	28.65	66.33	120.87	4.89	2.69	21.41	R (PO), accumulation factor [2]: 1.76; metabolite to MNTX ratios following oral administration [2]: 29.78%; Metabolite/MNTX Ratio ([3]; Day 1): 6.58%; AUC0-24 ([3]; Day 1, mean): 14.41 ng·h/mL; AUCinf ([3]; Day 1, mean): 18.5 ng·h/mL; Cmax ([3]; Day 1, mean): 1.17 ng/mL; Tmax ([3]; Day 1, median): 2.0 h; Metabolite/MNTX Ratio ([3]; Day 7): 8.72%; AUC0-24 ([3]; Day 7, mean): 19.51 ng·h/mL; AUCinf ([3]; Day 7, mean): 19.5 ng·h/mL; Cmax ([3]; Day 7, mean): 1.42 ng/mL; Tmax ([3]; Day 7, median): 2.0 h; t1/2 [3]: 8.13 h; R (SC), accumulation factor [3]: 1.42
methylnaltrexone sulfate [M2]	162	16.6	176	37.70	5.70	72.3	46.60	2.61	7.19	188.63	216.89	17.15	4.02	72.69	13.87	243.72	320.51	21.00	4.02	79.11	R (PO), accumulation factor [2]: 1.30; metabolite to MNTX ratios following oral administration [2]: 81.0%; Metabolite/MNTX Ratio ([3]; Day 1): 28.71%; AUC0-24 ([3]; Day 1, mean): 61.34 ng·h/mL; AUCinf ([3]; Day 1, mean): 71.9 ng·h/mL; Cmax ([3]; Day 1, mean): 6.34 ng/mL; Tmax ([3]; Day 1, median): 4.00 h; Metabolite/MNTX Ratio ([3]; Day 7): 29.30%; AUC0-24 ([3]; Day 7, mean): 66.3 ng·h/mL; AUCinf ([3]; Day 7, mean): 66.3 ng·h/mL; Cmax ([3]; Day 7, mean): 5.70 ng/mL; Tmax ([3]; Day 7, median): 4.00 h; t1/2 [3]: 5.57 h; R (SC), accumulation factor [3]: 1.13
